Columns and labels:
[1] = tested on: Hela-S3 cells; assay: Cytotoxicity to Hela-S3 cells (colony formation); format: cell-based; details: sensitized 2 hours at 37°C, colonies counted in 72 hours
Protocol: Hela-S3 cells (1 x 10⁴ cells/ml) were applied to an Eagle's MEM medium or a 10 % fresh calf serum-containing Eagle's MEM medium, and Agrimoniin was added thereto to sensitize the cells at 37°C for 2 hours. The concentration of the Agrimoniin added was variously varied. After sensitization, the cells were washed with Hanks' solution and then incubated in a CO₂ incubator containing a 10 % fresh calf serum-containing Eagle's MEM medium at 37°C for 72 hours. […] In addition, IC₅₀ of Agrimoniin to Hela-S3 cells in the 10 % fresh calf serum-containing Eagle's MEM medium was improved to be 57.4 µg/ml. From these experiments, it is noted that ellagitannins have a relatively strong direct cytotoxic action but the cytotoxic action may be reduced by addition of proteins such as serum to the culture medium.

[2] = tested on: ddy mice; assay: LD50 by probit method; format: in vivo
Text: 50 % lethal dose (LD₅₀) of Coriariin A to ddy mice was obtained by probit method.

SMILES	50 % cell-inhibiting concentration (IC₅₀) ([1]; 10 % fresh calf serum-containing Eagle's MEM medium) [µg/mL]	50 % cell-inhibiting concentration (IC₅₀) ([1]; Eagle's MEM medium) [µg/mL]	LD₅₀ ([2]; Intraabdominal, Female) [mg/kg]	LD₅₀ ([2]; Intraabdominal, Male) [mg/kg]	LD₅₀ ([2]; Intravenous, Female) [mg/kg]	LD₅₀ ([2]; Intravenous, Male) [mg/kg]	LD₅₀ ([2]; Peroral, Female)	LD₅₀ ([2]; Peroral, Male)
O=C(O[C@H]1O[C@@H]2COC(=O)c3cc(O)c(O)c(O)c3-c3c(cc(O)c(O)c3O)C(=O)O[C@H]2[C@@H]2OC(=O)c3cc(O)c(O)c(O)c3-c3c(cc(O)c(O)c3O)C(=O)O[C@@H]12)c1cc(O)c(O)c(Oc2c(C(=O)O[C@H]3O[C@@H]4COC(=O)c5cc(O)c(O)c(O)c5-c5c(cc(O)c(O)c5O)C(=O)O[C@H]4[C@@H]4OC(=O)c5cc(O)c(O)c(O)c5-c5c(cc(O)c(O)c5O)C(=O)O[C@@H]34)cc(O)c(O)c2O)c1 [Agrimoniin]	57.4	7.3						
O=C(O[C@@H]1O[C@@H]2COC(=O)c3cc(O)c(O)c(O)c3-c3c(cc(O)c(O)c3O)C(=O)O[C@H]2[C@H](OC(=O)c2cc(O)c(O)c(O)c2)[C@H]1OC(=O)c1cc(O)c(O)c(O)c1)c1cc(O)c(O)c(Oc2c(C(=O)O[C@H]3O[C@@H]4COC(=O)c5cc(O)c(O)c(O)c5-c5c(cc(O)c(O)c5O)C(=O)O[C@H]4[C@H](OC(=O)c4cc(O)c(O)c(O)c4)[C@H]3OC(=O)c3cc(O)c(O)c(O)c3)cc(O)c(O)c2O)c1 [Coriariin A]			119.1	120.2	36.8	37.5	1000 or more mg/kg	1000 or more mg/kg
